Tested on: Aβ42 production (γ-secretase) in H4 neuroglioma cells stably expressing the human APP695 isoform
Assay: Screening for preferential inhibition of Aβ42 vs. total Aβ production in H4 neuroglioma cells (Meso Scale Discovery electrochemiluminescence assays on supernatant)
Format: cell-based
Conditions: for IC50: 22 hours incubation, Aβ42 in supernatant, read-out: Aβ42 cellular IC50; for Ratio Aβ(total)/Aβ42 (Aβ total IC50/Aβ42 IC50): higher ratio = more specific inhibition of Aβ42 over Aβ total
Description: Cells were plated out to near confluency. The compounds to be tested were received as 10 mM stocks in 100% DMSO. A dilution series was initially generated in 100% DMSO and then diluted 200-fold in cell culture media such that the tested concentration range was 30 μM to 0.1 nM and the final DMSO concentration was 0.5%. The diluted compounds were incubated with the cells for 22 hours in an incubator at 37° C. and 5% CO2. Aβ42 as well as Aβ total levels were then measured post-incubation from the supernatant of the cells. Aβ42 levels were determined using a specific electrochemiluminescence assay provided by Meso Scale Discovery (Catalog #L21CA-1) according to the manufacturer's protocol. Aβ total levels were likewise determined using a specific electrochemiluminescence assay provided by Meso Scale Discovery (Catalog #L21ZA-1) according to the manufacturer's protocol.
In order to absolutely define the described compounds as modulators of γ-Secretase as opposed to simply inhibitors of γ-Secretase, measurements of not only Aβ42 but also Aβ total are performed.

SMILES	IC50	Ratio Aβ(total)/Aβ42 (Aβ total IC50/Aβ42 IC50)
COc1cc(Nc2nc3c(c(C(C)C)n2)SC2(CCCCC2)C3)ccc1-n1cnc(C)c1 [Example 18]	7.59 µM	2
Cc1cn(-c2ccc(Nc3nc4c(c(N(C)C)n3)[S+]([O-])C3(CCC3)C4)cc2C#N)cn1 (centres unmarked) [Example 23]	1.19 µM	25
Cc1cc(-c2ccc(Nc3nc4c(c(N(C)C)n3)SC3(CCC3)C4)cc2)ccn1 [Example 20]	1.38 µM	8
COc1cc(Nc2nc3c(c(N4CCCCC4)n2)SC2(CCOCC2)C3)ccc1-n1cnc(C)c1 [Example 16]	0.82 µM	>36
COc1cc(Nc2nc3c(c(C(C)C)n2)[S+]([O-])C2(CCCCC2)C3)ccc1-n1cnc(C)c1 (centres unmarked) [Example 21]	19.7 µM	1
Cc1cc(-c2ccc(Nc3nc4c(c(N(C)C)n3)[S+]([O-])C3(CCC3)C4)cc2)ccn1 (centres unmarked) [Example 22]	0.77 µM	12
COc1cc(Nc2nc3c(c(N4CCCCC4)n2)[S+]([O-])C2(CCOCC2)C3)ccc1-n1cnc(C)c1 (centres unmarked) [Example 17]	0.53 µM	51
COc1cc(Nc2nc(C)c3c(n2)CC2(CCC2)[S+]3[O-])ccc1-n1cnc(C)c1 (centres unmarked) [Example 11]	1.55 µM	19
COc1cc(Nc2nc3c(c(N4CCOCC4)n2)[S+]([O-])C2(CCC2)C3)ccc1-n1cnc(C)c1 (centres unmarked) [Example 8]	3.25 µM	>9
Cc1ncc(-c2ccc(Nc3nc4c(c(N(C)C)n3)SC3(CCC3)C4)cn2)o1 [Example 2]	0.52 µM	51

The next compounds have a lower IC50 than those just listed; values first:

IC50	Ratio Aβ(total)/Aβ42 (Aβ total IC50/Aβ42 IC50)	SMILES
0.37 µM	55	Cc1cn(-c2ccc(Nc3nc4c(c(N(C)C)n3)SC3(CCC3)C4)cc2C#N)cn1 [Example 19]
0.3 µM	61	COc1cc(Nc2nc3c(c(N(C)C)n2)[S+]([O-])C2(CCCCC2)C3)ccc1-n1cnc(C)c1 (centres unmarked) [Example 15]
0.22 µM	54	COc1cc(Nc2nc3c(c(NC4CCCC4)n2)[S+]([O-])C2(CCC2)C3)ccc1-n1cnc(C)c1 (centres unmarked) [Example 5]
0.19 µM	37	COc1cc(Nc2nc3c(c(NC4CCCC4)n2)SC2(CCC2)C3)ccc1-n1cnc(C)c1 [Example 1]
0.14 µM	55	COc1cc(Nc2nc3c(c(N4CCOCC4)n2)SC2(CCC2)C3)ccc1-n1cnc(C)c1 [Example 6]
0.13 µM	50	COc1cc(Nc2nc3c(c(N(C)C)n2)SC2(CCC2)C3)ccc1-n1cnc(C)c1 [Example 4]
0.13 µM	57	COc1cc(Nc2nc3c(c(N4CCCCC4)n2)SC2(CCCCC2)C3)ccc1-n1cnc(C)c1 [Example 13]
0.13 µM	110	COc1cc(Nc2nc(C)c3c(n2)CC2(CCC2)S3)ccc1-n1cnc(C)c1 [Example 10]
0.12 µM	100	COc1cc(Nc2nc3c(c(N4CCCCC4)n2)[S+]([O-])C2(CCCCC2)C3)ccc1-n1cnc(C)c1 (centres unmarked) [Example 14]
0.12 µM	61	COc1cc(Nc2nc3c(c(N(C)C)n2)SC2(CCCCC2)C3)ccc1-n1cnc(C)c1 [Example 12]
0.1 µM	242	COc1cc(Nc2nc3c(c(N(C)C)n2)SC2(CCC2)C3)ccc1-c1cnc(C)o1 [Example 7]
0.09 µM	85	COc1cc(Nc2nc3c(c(N4CCCCC4)n2)SC2(CCC2)C3)ccc1-n1cnc(C)c1 [Example 3]

— patent publication US9206195B2, “Dihydrothienopyrimidines” (Boehringer Ingelheim International GmbH, priority 2011, dated 2015)
